Assay results reported in patent US20130150340A1, “6-(4-Hydroxy-phenyl)-1H-pyrazolo[3,4-b]pyridine-4-carboxylic acid amide derivatives as kinase inhibitors” (SANOFI, priority 2011, published 2013).

biological target: T1, human full-length recombinant PKC βII (Homo sapiens, UniProt P05771); experiment: Determination of PKC βII inhibition (Caliper mobility-shift kinase assay); type: biochemical; conditions: example compounds at a final concentration of 1.14 μM (±0.15 μM); 60 min incubation at 32° C.
T1 construct: Active human full-length recombinant PKC βII; purchased Invitrogen GmbH, Darmstadt, Germany
Description: Determination of PKC 3H Inhibition
PKC βII inhibition was determined according to the following protocol:
Active human full-length recombinant PKC βII and the peptide substrate, Fluorescein-RFARKGSLRQKNV, were purchased from Invitrogen GmbH, Darmstadt, Germany. Adenosine-5′-triphosphate (ATP), bovine serum albumine (BSA), dimethylsulphoxide (DMSO), 4-(2-hydroxyethyl)piperazine-1-ethanesulfonic acid (Hepes), Triton X-100, 1,2-Dioleoyl-sn-glycerol (DAG), L-α-Phosphatidyl-L-serine (PS), calcium chloride (CaCl2), and Pluronic F-68 were purchased from Sigma-Aldrich, Munich, Germany. Magnesium chloride, 1 M sodium hydroxide solution, 1M hydrochloric acid solution and EDTA were obtained from Merck Biosciences, Darmstadt, Germany.
Test compounds were diluted to three times the test concentration in buffer 1 (30 mM Hepes-NaOH, pH 7.4, 0.01% Pluronic F-68 and 3% (v/v) DMSO). The PKC βII enzyme was diluted to a concentration of 30 ng/ml in buffer 2 (30 mM Hepes-NaOH, pH 7.4, 15 mM MgCl2, 150 μM CaCl2, 150 μg/ml PS, 60 μg/ml DAG, and 0.045% (w/v) Triton X-100). The peptide substrate and ATP were diluted to concentrations of 3 μM and 120 μM, respectively, in buffer 2. Two μl of the compound solution were mixed with 2 μl of the diluted enzyme in a 384-well small volume microtiter plate (Greiner, Bio-One, Frickenhausen, Germany), and the kinase reaction was initiated by addition of 2 μl of the solution containing peptide substrate and ATP. After 60 min incubation at 32° C., the reaction was stopped by addition of 20 μl of a solution containing 130 mM Hepes-NaOH, pH 7.4, 0.0195% (v/v) Brij-35, 6.5 mM EDTA, 0.13% chip coating reagent 3 (Caliper Lifescience Inc, Hopkinton, Mass.) and 6.5% (v/v) DMSO. Phosphorylation of the substrate peptide was then detected on a Caliper 3000 instrument essentially as described by Pommereau et al (J. Biomol. Screening 2004, 9(5), […]), Separation conditions were as follows: Pressure −0.8 psi, upstream voltage −3000 V, downstream voltage −800 V. Positive controls (buffer 1 instead of compound) and negative controls (buffer 1 instead of compound and buffer 2 instead of kinase solution) were run in parallel on each plate. Fractional turnover (R) was determined as the height of the peak of the phosphorylated peptide product divided by the sum of the unphosphorylated substrate and phosphorylated product peak heights. Percent-inhibition values for the test compounds were determined using the formula
% Inhibition=100*(1−(Rcompound−Rnegative control)/(Rpositive control−Rnegative control).

T1 sequence (P05771 1-673 isoform P05771-2): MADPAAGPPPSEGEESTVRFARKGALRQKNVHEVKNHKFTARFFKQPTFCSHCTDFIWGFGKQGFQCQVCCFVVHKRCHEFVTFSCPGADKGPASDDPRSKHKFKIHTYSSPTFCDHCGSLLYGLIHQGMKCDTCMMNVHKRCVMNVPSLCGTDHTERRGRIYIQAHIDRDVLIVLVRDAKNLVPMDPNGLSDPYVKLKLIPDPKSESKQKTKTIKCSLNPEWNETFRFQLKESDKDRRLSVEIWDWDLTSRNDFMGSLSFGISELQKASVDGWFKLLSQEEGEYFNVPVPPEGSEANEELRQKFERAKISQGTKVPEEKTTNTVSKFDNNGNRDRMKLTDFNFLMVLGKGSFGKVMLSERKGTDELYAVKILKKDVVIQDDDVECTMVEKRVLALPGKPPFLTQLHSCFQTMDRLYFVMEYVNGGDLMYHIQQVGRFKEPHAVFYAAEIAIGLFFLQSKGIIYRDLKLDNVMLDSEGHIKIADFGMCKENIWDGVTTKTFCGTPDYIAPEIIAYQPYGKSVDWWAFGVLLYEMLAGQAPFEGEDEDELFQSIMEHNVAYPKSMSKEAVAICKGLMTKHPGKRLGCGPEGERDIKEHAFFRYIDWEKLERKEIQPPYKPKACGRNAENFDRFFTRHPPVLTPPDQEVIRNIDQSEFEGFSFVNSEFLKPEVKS

inhibition at 1.14 µM | SMILES
45% | CCN1CCCN(C(=O)c2cc(-c3ccc(O)cc3)nc3[nH]ncc23)CC1 [Example 64, (4-Ethyl-[1,4]diazepan-1-yl)-[6-(4-hydroxy-phenyl)-1H-pyrazolo[3,4-b]pyridin-4-yl]-methanone]
34% | CC1CCN(C2CCN(C(=O)c3cc(-c4ccc(O)cc4)nc4[nH]ncc34)C2)CC1 (stereo not shown) [Example 65, [6-(4-Hydroxy-phenyl)-1H-pyrazolo[3,4-b]pyridin-4-yl]-[3-(4-methyl-piperidin-1-yl)-pyrrolidin-1-yl]-methanone]
59% | CN1CCC(NC(=O)c2cc(-c3ccc(O)cc3)nc3[nH]ncc23)CC1 [Example 66, 6-(4-Hydroxy-phenyl)-1H-pyrazolo[3,4-b]pyridine-4-carboxylic acid (1-methyl-piperidin-4-yl)-amide]
40% | CC(=O)N1CCC(NC(=O)c2cc(-c3ccc(O)cc3)nc3[nH]ncc23)CC1 [Example 68, 6-(4-Hydroxy-phenyl)-1H-pyrazolo[3,4-b]pyridine-4-carboxylic acid (1-acetyl-piperidin-4-yl)-amide]
27% | COCCN1CCN(C(=O)c2cc(-c3ccc(O)cc3)nc3[nH]ncc23)CC1 [Example 71, [6-(4-Hydroxy-phenyl)-1H-pyrazolo[3,4-b]pyridin-4-yl]-[4-(2-methoxy-ethyl)-piperazin-1-yl]-methanone]
35% | O=C(c1cccnc1)N1CCN(C(=O)c2cc(-c3ccc(O)cc3)nc3[nH]ncc23)CC1 [Example 74, [6-(4-Hydroxy-phenyl)-1H-pyrazolo[3,4-b]pyridin-4-yl]-[4-(pyridine-3-carbonyl)-piperazin-1-yl]-methanone]
45% | O=C(NC1CCN(Cc2ccncc2)CC1)c1cc(-c2ccc(O)cc2)nc2[nH]ncc12 [Example 75, 6-(4-Hydroxy-phenyl)-1H-pyrazolo[3,4-b]pyridine-4-carboxylic acid (1-pyridin-4-ylmethyl-piperidin-4-yl)-amide]
30% | CN1CCN(C(=O)c2cc(-c3ccc(O)cc3)nc3[nH]ncc23)CC1=O [Example 76, 4-[6-(4-Hydroxy-phenyl)-1H-pyrazolo[3,4-b]pyridine-4-carbonyl]-1-methyl-piperazin-2-one]
84% | O=C(NC1CCN(Cc2cccnc2)CC1)c1cc(-c2ccc(O)cc2)nc2[nH]ncc12 [Example 78, 6-(4-Hydroxy-phenyl)-1H-pyrazolo[3,4-b]pyridine-4-carboxylic acid (1-pyridin-3-ylmethyl-piperidin-4-yl)-amide]

Continued, compound first:

SMILES | inhibition at 1.14 µM
O=C1CCC(CNC(=O)c2cc(-c3ccc(O)cc3)nc3[nH]ncc23)N1 (stereo not shown) [Example 63, 6-(4-Hydroxy-phenyl)-1H-pyrazolo[3,4-b]pyridine-4-carboxylic acid (5-oxo-pyrrolidin-2-ylmethyl)-amide] | 48%
O=C(NC1CCN(C2CCCCC2)CC1)c1cc(-c2ccc(O)cc2)nc2[nH]ncc12 [Example 67, 6-(4-Hydroxy-phenyl)-1H-pyrazolo[3,4-b]pyridine-4-carboxylic acid (1-cyclohexyl-piperidin-4-yl)-amide] | 64%
O=C1CC[C@@H](NC(=O)c2cc(-c3ccc(O)cc3)nc3[nH]ncc23)CN1 [Example 69, 6-(4-Hydroxy-phenyl)-1H-pyrazolo[3,4-b]pyridine-4-carboxylic acid ((R)-6-oxo-piperidin-3-yl)-amide] | 59%
CCN1CC2CC1CN2C(=O)c1cc(-c2ccc(O)cc2)nc2[nH]ncc12 (stereo not shown) [Example 70, (5-Ethyl-2,5-diaza-bicyclo[2.2.1]hept-2-yl)-[6-(4-hydroxy-phenyl)-1H-pyrazolo[3,4-b]pyridin-4-yl]-methanone] | 46%
O=C(NC1CN2CCC1CC2)c1cc(-c2ccc(O)cc2)nc2[nH]ncc12 (stereo not shown) [Example 72, 6-(4-Hydroxy-phenyl)-1H-pyrazolo[3,4-b]pyridine-4-carboxylic acid (1-aza-bicyclo[2.2.2]oct-3-yl)-amide] | 78%
CN1CCC(N(C)C(=O)c2cc(-c3ccc(O)cc3)nc3[nH]ncc23)CC1 [Example 73, 6-(4-Hydroxy-phenyl)-1H-pyrazolo[3,4-b]pyridine-4-carboxylic acid methyl-(1-methyl-piperidin-4-yl)-amide] | 31%
O=C(N[C@@H]1CCCN(Cc2ccccc2)C1)c1cc(-c2ccc(O)cc2)nc2[nH]ncc12 [Example 77, 6-(4-Hydroxy-phenyl)-1H-pyrazolo[3,4-b]pyridine-4-carboxylic acid ((R)-1-benzyl-piperidin-3-yl)-amide] | 57%
